Where “and” joins values, the source holds several entries; their conditions need not be identical. Equal values may be shown once. Read-outs that look alike come from different tables or passages of the source.
Key:
CRPC [1] = experiment: RESTORE Phase II study (NCT02090114); format: in vivo, human; conditions: re-challenge with the agent patients progressed on before BAT
From the text: The RESTORE study (NCT02090114) was an NIH sponsored Phase II study designed to assess the safety and efficacy of BAT in men (n=30 per cohort) with CRPC progressing on enzalutamide (Cohort A) or abiraterone (Cohort B), FIG. 6A. Shah et al., 2004. The primary endpoint of the first part of the study was to assess PSA response to BAT. Secondary endpoints included objective response, safety, and quality of life. The second part of the study was to determine in BAT could re-sensitize patients to repeat exposure to second line therapy that patients were progressing on prior to receiving BAT. Thus, patients progressing on enzalutamide were re-exposed to enzalutamide after BAT and similarly for abiraterone. Both arms of this study met the primary endpoint. PSA50 Response to BAT was 30% in patient's post-enzalutamide and 18% post-abiraterone, FIG. 6B. Shah et al., 2004. […] Overall duration of response to BAT and duration of response to re-exposure was longer in the post-enzalutamide vs. post-abiraterone cohort. The PSA50 response to re-exposure to enzalutamide was 71% vs. only 21% for patients re-exposed to abiraterone, FIG. 6B. Shah et al., 2004. A third cohort was later added (Cohort C) for men progressing on ADT alone. Overall, 90 men were treated on this study over a 4-year period (2014-2018).

[2] = system: metastatic castration-resistant prostate cancer; conditions: cited from earlier work
CRPC [3] = experiment: Post hoc analysis of PSA response to subsequent hormonal therapies post-BAT (pilot study); format: in vivo, human; conditions: for patients with a PSA decline on second line therapy: after return to castrate testosterone levels post-BAT; for Maximum PSA decline upon secondary HT initiation (%): per subject, secondary HT received post-study after return to castrate T-levels post-BAT; for PSA decline upon re-challenge: subjects who had previously progressed on the same agent
Method: As part of the aforementioned pilot study, a post hoc exploratory analysis on the effect of BAT on subsequent hormonal therapies was performed. […] All of the patients had received at least one anti-androgen prior to starting the study, Table 2. PSA response to secondary hormonal therapy after return to castrate T-levels post-BAT.

LNCaP = experiment: Cell death, trypan blue exclusion assay; format: cell-based, human; conditions: ferrostatin-1 in combination with R1881
Method: Cells were stained with 0.4% trypan blue (Sigma) and incubated for 2-3 min at room temperature to allow dead cells to take up the blue stain. Cell viability was measured using an automated cell counter, Cellometer, (Nexcelom). Each experiment was repeated at least three times. Dead cells were calculated from subtracting the percentage of viable cells from 100. Mean percentage of dead cells was plotted on histograms.

ferritin = experiment: Ferritin level by western blot; format: cell-based, human; conditions: LNCaP cells, 10 μM with 10 nM R1881
Method: Cell lysates were prepared either in 1× denaturing lysis buffer (Cell Signaling #9803) or non-denaturing lysis buffer (50 mM HEPES pH 7.4, 150 mM NaCl, 5 mM EDTA, 10% glycerol, 1% Nonidet P-40, and supplemented with phosphatase and protease inhibitors). For denaturing gels, lysates were mixed with Laemmli buffer containing β-mercaptoethanol, boiled for 5 mins and stored at −80° C. until use. Native lysates were mixed with native loading buffer (BioRad), and semi-native lysates were mixed with Laemmli buffer without beta-mercaptoethanol and stored at −80° C. without boiling. Native gels were resolved as described previously, Robitaille et al., 2016; denaturing and semi-native gels were resolved on 4-15% precast polyacrylamide gels (BioRad) followed by transfer to PVDF membrane. Membranes were blocked in 5% nonfat milk in wash buffer (Tris-buffered saline+0.1% Tween-20). After blocking, immunoblotting was performed with primary antibodies overnight at 4° C., followed by incubation with HRP-conjugated secondary antibodies for 1 h at room temperature. Blots were analyzed using the chemiluminescence method. Blots were developed using ECL Western blot detection reagent (GE Healthcare) for highly expressed proteins and Super Signal West Femto (Thermo Fisher) reagent for low expression proteins. Each experiment was repeated at least two to three times.

CRPC [4] = experiment: Pilot study of BAT plus etoposide in men with CRPC; format: in vivo, human
Method: Based on the preclinical results and potential mechanisms for growth inhibition that include androgen-induced double strand breaks and stabilization of AR preventing relicensing, a pilot study was conducted to evaluate the efficacy and safety of pharmacologic doses of testosterone to produce high dose testosterone levels in conjunction with oral etoposide in chronically castrated men with rising PSA and CRPC, FIG. 4A. Patients who had been continuously castrate for more than one year with minimal metastatic disease burden (≤5 total bone metastases and ≤10 total sites of metastases) and/or rising PSA were eligible, FIG. 4B. To achieve rapid cycling between high dose and near castrate serum testosterone (i.e., BAT) patients received intramuscular injection of 400 mg testosterone cypionate every 28 days. For the first 3 cycles of therapy patients received BAT plus oral etoposide 100 mg po/day days 1-14 of a 28-day cycle. After 3 cycles PSA response and objective response were assessed. Those patients with a PSA that was declining from peak levels and no objective evidence of disease progression or worsening pain were continued on therapy. Given the toxicity associated with etoposide and the lack of clinical response in an earlier trial, Hussain et al., 1994, patients who responding after 3 cycles of testosterone plus etoposide were continued on testosterone alone based on protocol amendment.

[5] = system: advanced prostatic carcinoma; conditions: cited from earlier work
LNCaP/A-xenografts = experiment: LNCaP xenografts in castrated mice with testosterone implants; format: in vivo
From the text: FIG. 3A and FIG. 3B show castrated NOG mice inoculated with LNCaP/A-cells were either exposed to BAT therapy (via an implanted testosterone filled capsule that was placed and removed at two-week intervals) or left in a permanently castrate state (diamond versus box). (FIG. 3A) Evaluation of indicated parameters in LNCaP/A-cells growing in castrate mice vs. castrate mice supplemented with subcutaneous testosterone-filled silastic implants; (FIG. 3B) Immunohistochemical staining for AR in harvested LNCaP/A-xenografts growing in castrate vs. castrate+T-pelleted mice. Blue arrows indicate mitotic figures;
A mechanism for growth inhibition by testosterone in CRPC cells has been recently explored. Beer et al., 2014; Litvinov et al., 2006; Vander Griend et al., 2007. These studies document that the increase in AR expression observed in these cells in the low testosterone environment creates a unique therapeutic vulnerability to selectively kill CRPCs. This observation is based on the fact that AR is involved in DNA relicensing and DNA replication AR must degraded each cell cycle for proper relicensing to occur. Overstabilization of the increased levels of AR observed in CRPC with high dose testosterone prevents complete degradation of AR via the proteasome during mitosis. Beer et al., 2014; Litvinov et al., 2006; Vander Griend et al., 2007. […] Beer et al., 2014. […] In xenografts treated with high dose testosterone, however, the Cell Death Index was approximately 3-fold higher. Beer et al., 2014. More strikingly, the percent of cells staining positive for AR in mitosis was approximately 10-fold higher in cells exposed to high dose testosterone vs. castrate only animals, FIG. 3b.

CRPC [6] = conditions: cited from earlier work
early CRPC = conditions: cited from earlier work
[7] = cited from earlier work
mCPRC = conditions: 258 patients previously treated with docetaxel and one or more hormonal therapies; cited from earlier work

CC(=O)O[C@H]1CC[C@@]2(C)C(=CC[C@@H]3[C@@H]2CC[C@]2(C)C(c4cccnc4)=CC[C@@H]32)C1 [abiraterone, abiraterone acetate]
PSA50 response to re-exposure post-BAT (CRPC [1]): 21% | PFS (median), clinical/radiographic ([2]; AR-V7-negative patients): not reached | PSA response rate ([2]; AR-V7-negative patients): 68.0% | PSA-PFS (median) ([2]; AR-V7-negative patients): not reached | PFS (median), clinical/radiographic ([2]; AR-V7-positive patients): 2.3 months | PSA response rate ([2]; AR-V7-positive patients): 0% | PSA-PFS (median) ([2]; AR-V7-positive patients): 1.3 months | patients with a PSA decline on second line therapy (CRPC [3]): 4/4 | Maximum PSA decline upon secondary HT initiation (%) (CRPC [3]): −94.2% and −92.7% and −88.1% and −63.8% | patients with >50% PSA decline on second line therapy (CRPC [3]; post-BAT): Four of 4

CC(O)(CS(=O)(=O)c1ccc(F)cc1)C(=O)Nc1ccc(C#N)c(C(F)(F)F)c1 (centres unmarked) [bicalutamide]
patients with a PSA decline on second line therapy (CRPC [3]): 1/1 | Maximum PSA decline upon secondary HT initiation (%) (CRPC [3]): −30.8% | PSA decline upon re-challenge (CRPC [3]): 30.9%

CCOC(=O)c1ccc(NC2CCCCC2)c(N)c1 [ferrostatin-1]
SupraT induced cell death (LNCaP): abrogated cell death

CCN(CCO)CCCC(C)Nc1ccnc2cc(Cl)ccc12 (centres unmarked) [hydroxychloroquine]
degradation of ferritin by SupraT (ferritin): prevented the degradation of ferritin by SupraT

CC1(C)NC(=O)N(c2ccc([N+](=O)[O-])c(C(F)(F)F)c2)C1=O [nilutamide]
patients with a PSA decline on second line therapy (CRPC [3]): 1/1 | Maximum PSA decline upon secondary HT initiation (%) (CRPC [3]): −44.3% | PSA decline upon re-challenge (CRPC [3]): 44.3%

C[C@]12CC[C@H]3[C@@H](CCC4=CC(=O)CC[C@@]43C)[C@@H]1CC[C@@H]2OC(=O)CCC1CCCC1 [testosterone cypionate]
patients with a decline in PSA from baseline value (CRPC [4]; 400 mg IM every 28 days, oral etoposide in first 3 cycles): Seven of fourteen | patients developing new bone metastases (CRPC [4]; completing 3 months of therapy): None of the 14 patients | median time to PSA progression (CRPC [4]; seven patients with PSA decline, range 95 to 454 days): 221 days | complete response (CR) (CRPC [4]; ten evaluable subjects): 10% | partial responses (PRs) (CRPC [4]; ten evaluable subjects): 40% | progressive disease (PD), RECIST-evaluable soft tissue metastases (CRPC [4]; ten evaluable subjects): 20% | stable disease (CRPC [4]; ten evaluable subjects, median follow up 91 days): 30%

C[C@]12CC[C@H]3[C@@H](CCC4=CC(=O)CC[C@@]43C)[C@@H]1CC[C@@H]2O [testosterone]
patients with subjective improvement ([5]; long-term castrate group, testosterone for at least one month): 4 of 5 | men with acid phosphatase decline ([5]; longer course of testosterone): 2/5 | Cell Death Index, increase vs castrate (LNCaP/A-xenografts; high dose testosterone vs castrate only): approximately 3 fold | percent of cells staining positive for AR in mitosis, increase vs castrate (LNCaP/A-xenografts; high dose testosterone vs castrate only animals): approximately 10 fold | xenograft growth (LNCaP/A-xenografts; testosterone implants, high dose serum T-levels vs castrate only): significant growth inhibition

C[C@]12CC[C@H]3[C@@H](CCC4=CC(=O)CC[C@@]43C)[C@@H]1CC[C@@H]2O [transdermal testosterone, testosterone]
toxicities (CRPC [6]; 7.5 mg/day, 12 patients): no grade 3 or 4 toxicities and no pain flares | objective responses (CRPC [6]; 7.5 mg/day): No objective responses | patients with >50% PSA decline (CRPC [6]; of 12 patients): one | patients with at least 20% PSA declines (CRPC [6]; of 12 patients): Four | patients with a decrease in PSA (early CRPC; 15 men, 2.5-7.5 mg/day): 20% | largest decrease in PSA (early CRPC; in vivo): 43% | toxicities (early CRPC; in vivo): no grade 3 or 4 toxicities were observed with the exception of one person who was taken off study at week 53 for grade 4 cardiac toxicity | median concentration of testosterone ([7]; 2.5 mg/day transdermal): 305 ng/dL | median concentration of testosterone ([7]; 5.0 mg/day transdermal): 308 ng/dL | median concentration of testosterone ([7]; 7.5 mg/day transdermal): 297 ng/dL

Pembrolizumab: anti-PD1/PDL1 antibody
Objective response (mCPRC): < 5%

Reference: patent US20250281509A1, “SEQUENTIAL HORMONE THERAPY TO IMPROVE SURVIVAL AND ENHANCE RESPONSE TO IMMUNE THERAPY IN MEN WITH PROSTATE CANCER” (The Johns Hopkins University, priority 2021, published 2025)
